Measurements: US11639506B2, “Recombinant yeast having increased tolerance to ionic liquids and methods of use” (Wisconsin Alumni Research Foundation, priority 2015, dated 2023)
Several values for one entry are separate records, joined by “and”; a condition that tells them apart may be missing. Equal entries are not always repeated.

Legend:
[1] = system: S. cerevisiae deletion mutants; test: Chemical genomic profiling of pooled deletion mutants; assay type: cell-based
Method: FIGS. 1A-B depict chemical genomic profiling of ionic liquids. A genome-wide set of deletion mutants were challenged with a specific compound and grown as a pool for several generations.
Chemical genomic analysis: Chemical genomic analysis of poacic acid was performed as described as described previously (Fung et al., 2013; Parsons et al., 2006). The tested yeast deletion collection had 4000 strains using the genetic background described in Andrusiak (2012). The optimal inhibitory concentration of poacic acid for chemical genomic profiling (70-80% growth versus solvent control in YP-galactose media after 24 hours of growth) was determined using an 8 point dose curve. A concentration of 88 μg/ml inhibited growth within this range. 200 μl cultures of the pooled, deletion collection of S. cerevisiae deletion mutants were grown with 88 μg/ml poacic acid or a DMSO control in triplicate for 48 hours at 30° C. Genomic DNA was extracted using the Epicentre MasterPure™ Yeast DNA purification kit. Mutant-specific molecular barcodes were amplified with specially designed multiplex primers (Smith et al., 2009). The barcodes were sequenced using an Illumina MiSeq. Three replicates of each condition (poacic acid vs. DMSO) were sequenced. One DMSO control was lost due to poor sequencing reads. The barcode counts for each yeast deletion mutant in the presence of poacic acid were normalized against the DMSO control conditions to define sensitivity or resistance of individual strains. To determine a p-value for each top sensitive and resistant mutant, we used the EdgeR package (Robinson et al., 2014, 2010). A Bonferroni-corrected hypergeometric distribution test was used to search for significant enrichment of GO terms among the top 10 sensitive and resistant deletion mutants (Boyle et al., 2004). To understand the pathways that were most affected by poacic acid we developed a protein complex/pathway score based on the summation of the z-scores for each complex/pathway (Pathway z-score). Correlation of the chemical genomic profile of poacic acid with the yeast genetic interaction network to was done as described in Costanzo et al. (2010).

yeast mitochondria = test: SYTO 16 staining of active mitochondria (microscopy); assay type: cell-based; details: SYTO 16 stain
Text: We determined that ionic liquids were more toxic to cells grown on glycerol compared to glucose (FIG. 3A). Using microscopy, we explored the effect of ionic liquids on mitochondria. […] Untreated cells had normal mitochondrial morphology, and at higher doses, mitochondria structures in cells disappeared indicating a loss of functional mitochondria. Finally, we used FACS analysis with the stain 3,3-Dioctadecyloxacarbocyanine perchlorate (“DiO”), which has differential fluorescence depending on mitochondrial membrane potential. In the presence of ionic liquids, we observed a fluorescence shift of DiO, indicating reduced mitochondrial membrane potential (FIGS. 3C-D). Valinomycin was used as a positive control. Hydroxyurea and benomyl were included as negative control agents that causes cell death through a mechanism unrelated to the mitochondria.

## CCn1cc[n+](C)c1.[Cl-] [EMIM-Cl, 1-ethyl-3-methylimidazolium chloride]
[1]; APM3 deletion mutant
  Fold Change: 0.5222
[1]; ARG2 deletion mutant, listed as EMIM-CI
  Fold Change: 0.1706
[1]; ARX1 deletion mutant
  Fold Change: 1.688
[1]; AVT3 deletion mutant
  Fold Change: 1.575
[1]; AVT5 deletion mutant
  Fold Change: 1.933
[1]; BAP2 deletion mutant
  Fold Change: 1.689
[1]; BNI4 deletion mutant
  Fold Change: 1.665
[1]; BUD8 deletion mutant
  Fold Change: 0.6034
[1]; CAT5 deletion mutant
  Fold Change: 0.4405
[1]; CTF4 deletion mutant
  Fold Change: 2.67
[1]; DAN1 deletion mutant
  Fold Change: 0.5786
[1]; DBF2 deletion mutant
  Fold Change: 1.927
[1]; DBP3 deletion mutant
  Fold Change: 1.709
[1]; DEP1 deletion mutant
  Fold Change: 2.106
[1]; DIA2 deletion mutant
  Fold Change: 2.886
[1]; DOA1 deletion mutant
  Fold Change: 1.661
[1]; DPB3 deletion mutant
  Fold Change: 1.946
[1]; ERF2 deletion mutant
  Fold Change: 1.477
[1]; GAL1 deletion mutant
  Fold Change: 0.1962
[1]; GAL1 deletion mutant, listed as EMIM-CI
  Fold Change: 0.1962
[1]; GRX2 deletion mutant
  Fold Change: 0.3394
[1]; HIR2 deletion mutant
  Fold Change: 0.4587
[1]; HMI1 deletion mutant
  Fold Change: 0.1939
[1]; IRA2 deletion mutant
  Fold Change: 0.4076
[1]; IST3 deletion mutant
  Fold Change: 1.899
[1]; LIA1 deletion mutant
  Fold Change: 1.621
[1]; LYS2 deletion mutant
  Fold Change: 0.4622
[1]; LYS5 deletion mutant
  Fold Change: 0.1821
[1]; LYS14 deletion mutant
  Fold Change: 0.3984
[1]; MCT1 deletion mutant
  Fold Change: 0.1576
[1]; MEI4 deletion mutant
  Fold Change: 1.592
[1]; MF(ALPHA)2 deletion mutant
  Fold Change: 0.6154
[1]; NMD2 deletion mutant
  Fold Change: 1.614
[1]; OLA1 deletion mutant
  Fold Change: 1.645
[1]; PEX32 deletion mutant
  Fold Change: 2.103
[1]; PMT1 deletion mutant
  Fold Change: 1.712
[1]; PPM1 deletion mutant
  Fold Change: 0.3444
[1]; PTK2 deletion mutant
  Fold Change: 12
[1]; PUF4 deletion mutant
  Fold Change: 0.1863
[1]; PUF4 deletion mutant, listed as EMIM-CI
  Fold Change: 0.1863
[1]; PUF6 deletion mutant
  Fold Change: 1.748
[1]; QCR2 deletion mutant, listed as EMIM-CI
  Fold Change: 0.195
[1]; RCR1 deletion mutant
  Fold Change: 0.4508
[1]; REI1 deletion mutant
  Fold Change: 2.168
[1]; RHO2 deletion mutant
  Fold Change: 1.785
[1]; RIM1 deletion mutant, listed as EMIM-CI
  Fold Change: 0.1974
[1]; RNP1 deletion mutant
  Fold Change: 1.495
[1]; ROM2 deletion mutant
  Fold Change: 2.198
[1]; RPL11B deletion mutant
  Fold Change: 1.725
[1]; RPL19A deletion mutant
  Fold Change: 1.875
[1]; RPL19B deletion mutant
  Fold Change: 1.56
[1]; RPL24B deletion mutant
  Fold Change: 2.086
[1]; RPS10A deletion mutant
  Fold Change: 2.351
[1]; RPS18B deletion mutant
  Fold Change: 1.743
[1]; RPS28B deletion mutant
  Fold Change: 2.088
[1]; RRI1 deletion mutant
  Fold Change: 0.6151
[1]; SAP155 deletion mutant
  Fold Change: 1.704
[1]; SAP185 deletion mutant
  Fold Change: 0.649
[1]; SAY1 deletion mutant
  Fold Change: 1.592
[1]; SHE9 deletion mutant
  Fold Change: 0.2014
[1]; SIN3 deletion mutant
  Fold Change: 2.02
[1]; SKY1 deletion mutant
  Fold Change: 4.5 and 4.547
[1]; SPS4 deletion mutant
  Fold Change: 0.5658
[1]; SSK2 deletion mutant
  Fold Change: 1.579
[1]; SUR4 deletion mutant
  Fold Change: 2.535
[1]; SVL3 deletion mutant
  Fold Change: 0.3847
[1]; SWI6 deletion mutant
  Fold Change: 1.902
[1]; TOP1 deletion mutant
  Fold Change: 1.759
[1]; TRP2 deletion mutant
  Fold Change: 1.685
[1]; TSR2 deletion mutant
  Fold Change: 1.94
[1]; TYE7 deletion mutant
  Fold Change: 0.4859
[1]; UBC4 deletion mutant
  Fold Change: 1.541
[1]; UBP14 deletion mutant
  Fold Change: 1.534
[1]; UPF3 deletion mutant
  Fold Change: 1.61
[1]; VPS38 deletion mutant
  Fold Change: 1.666
[1]; YBR090C deletion mutant
  Fold Change: 0.5882
[1]; YDL118W deletion mutant
  Fold Change: 1.522
[1]; YDL172C deletion mutant
  Fold Change: 1.636
[1]; YGR237C deletion mutant
  Fold Change: 0.5496
[1]; YHB1 deletion mutant
  Fold Change: 0.5611
[1]; YIH1 deletion mutant
  Fold Change: 1.762
[1]; YIL141W deletion mutant
  Fold Change: 1.524
[1]; YIR044C deletion mutant
  Fold Change: 0.5723
[1]; YLR194C deletion mutant
  Fold Change: 0.5909
[1]; YLR279W deletion mutant
  Fold Change: 0.5779
[1]; YLR434C deletion mutant
  Fold Change: 1.5
[1]; YMR193C-A deletion mutant
  Fold Change: 1.867
[1]; YOL162W deletion mutant
  Fold Change: 0.5537
[1]; YPL205C deletion mutant
  Fold Change: 1.523
[1]; YPR130C deletion mutant
  Fold Change: 0.5263
[1]; YPS7 deletion mutant
  Fold Change: 1.508
[1]; YPT7 deletion mutant
  Fold Change: 0.1584
[1]; YPT7 deletion mutant, listed as EMIM-CI
  Fold Change: 0.1584
[1]; YSP2 deletion mutant
  Fold Change: 1.618
[1]; ZDS1 deletion mutant
  Fold Change: 0.6026
Yeast mitochondria
  effect on staining of active mitochondria: dose-dependent effect
